Measured values as given in ChEMBL document CHEMBL3091353, “Trisubstituted and tetrasubstituted pyrazolines as a novel class of cell-growth inhibitors in tumor cells with wild type p53” (Bioorg Med Chem, 2013).
Calls of active or inactive are those of the source. The rule behind the calls is not given here.

Assays:
[1] = target: E3 ubiquitin-protein ligase Mdm2 (Homo sapiens) (UniProt Q00987); test: Displacement of carboxyfluorescein-labeled LTFEHYWAQLTS-FAM from MDM2 (unknown origin) (2 to 125) at 0.005 to 1 mM by fluorescence anisotropic analysis
Sequence of E3 ubiquitin-protein ligase Mdm2 (Homo sapiens) (Q00987 whole entry, looked up): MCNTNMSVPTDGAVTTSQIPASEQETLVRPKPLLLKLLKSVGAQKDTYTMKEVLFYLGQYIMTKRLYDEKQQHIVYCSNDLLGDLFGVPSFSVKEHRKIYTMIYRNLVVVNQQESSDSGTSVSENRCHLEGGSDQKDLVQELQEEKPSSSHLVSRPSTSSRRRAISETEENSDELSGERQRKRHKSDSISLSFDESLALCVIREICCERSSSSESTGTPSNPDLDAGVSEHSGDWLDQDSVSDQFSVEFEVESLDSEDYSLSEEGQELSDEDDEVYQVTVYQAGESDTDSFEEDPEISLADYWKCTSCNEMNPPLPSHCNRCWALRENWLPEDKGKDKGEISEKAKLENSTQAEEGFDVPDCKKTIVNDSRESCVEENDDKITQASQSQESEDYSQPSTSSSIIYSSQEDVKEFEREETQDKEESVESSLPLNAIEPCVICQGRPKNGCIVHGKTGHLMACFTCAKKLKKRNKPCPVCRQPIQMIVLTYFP

[2] = system: HCT-116; test: Cytotoxicity against human HCT116 cells after 72 hrs by CellTiterGlo luciferase-based assay; assay type: functional, cell-based; settings: HCT-116, 72 h
[3] = Cytotoxicity against human H1299 cells after 72 hrs by CellTiterGlo luciferase-based assay; assay type: functional, cell-based; settings: NCI-H1299, 72 h
[4] = target: E3 ubiquitin-protein ligase Mdm2 (Homo sapiens) (UniProt Q00987); test: Displacement of carboxyfluorescein-labeled LTFEHYWAQLTS-FAM from human MDM2 (16 to 116) expressed in Escherichia coli C41 at 0.005 to 1 mM by fluorescence anisotropic analysis
[5] = system: NCI-H1299; test: Cytotoxicity against human H1299 cells at 20 uM after 72 hrs by CellTiterGlo luciferase-based assay; assay type: functional, cell-based
[6] = system: HCT-116; test: Cytotoxicity against human HCT116 cells at 20 uM after 72 hrs by CellTiterGlo luciferase-based assay; assay type: functional, cell-based
[7] = target: Cellular tumor antigen p53 (Homo sapiens) (UniProt P04637); test: Induction of p53 translocation in human HCT116 cells assessed as protein nuclear to cytosolic ratio at 30 uM after 20 hrs by immunofluorescence analysis; assay type: cell-based; settings: HCT-116
Sequence of Cellular tumor antigen p53 (Homo sapiens) (P04637 whole entry, looked up): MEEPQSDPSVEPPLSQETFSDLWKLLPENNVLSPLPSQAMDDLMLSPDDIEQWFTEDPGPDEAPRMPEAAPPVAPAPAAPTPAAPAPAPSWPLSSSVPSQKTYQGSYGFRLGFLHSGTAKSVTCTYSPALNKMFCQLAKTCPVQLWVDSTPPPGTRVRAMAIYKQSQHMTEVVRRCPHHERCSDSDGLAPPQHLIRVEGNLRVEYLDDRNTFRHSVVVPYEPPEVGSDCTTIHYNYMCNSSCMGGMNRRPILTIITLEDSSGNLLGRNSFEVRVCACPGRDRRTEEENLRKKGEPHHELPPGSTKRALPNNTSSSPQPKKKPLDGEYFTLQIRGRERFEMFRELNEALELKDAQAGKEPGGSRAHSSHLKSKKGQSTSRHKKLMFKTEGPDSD

[8] = Ratio of IC50 for human H1299 cells to IC50 for human HCT116 cells; settings: H1299 cells and HCT116 cells

| SMILES | inhibition [1] | IC50 [2] [µM] | IC50 [3] [µM] | inhibition [4] | inhibition [5] | inhibition [6] | Activity [7] | selectivity ratio [8] |
| --- | --- | --- | --- | --- | --- | --- | --- | --- |
| CC(C)(C)C1=NN(c2ccc(Cl)cc2)C(c2ccc(Cl)cc2)C1C(=O)N1CCOCC1 (stereo not drawn) | Active | 3.5 | 14.2 | Active | – | – | – | – |
| COc1ccc(C2=NN(c3cccc(Cl)c3)C(c3ccccc3Cl)C2)cc1 (stereo not drawn) | – | – | – | – | Active | Active | – | – |
| CC(C)(C)C1=NN(c2ccc(Br)cc2)C(c2ccc(Cl)cc2)C1 (stereo not drawn) | Active | 4.3 | 19.4 | Active | – | – | – | – |
| CCOc1ccccc1C1=NN(c2ccc(Cl)cc2)C(c2ccc(Cl)cc2)C1C(=O)N1CCOCC1 (stereo not drawn) | inactive | 8 | 8.4 | inactive | – | – | – | – |
| COc1cccc(C2=NN(c3ccccc3Cl)C(c3ccccc3Cl)C2)c1 (stereo not drawn) | inactive | 2.5 | 13.6 | inactive | – | – | inactive | – |
| COc1cccc(C2=NN(c3ccc(Cl)cc3)C(c3cccc(Cl)c3)C2)c1 (stereo not drawn) | inactive | 18.5 | – | inactive | – | – | – | – |
| COc1ccccc1C1=NN(c2ccccc2Cl)C(c2cccc(Cl)c2)C1 (stereo not drawn) | inactive | 1.9 | 13.4 | inactive | – | – | – | – |
| COc1ccccc1C1=NN(c2cccc(Cl)c2)C(c2cccc(Cl)c2)C1 (stereo not drawn) | inactive | 1.6 | 11.7 | inactive | – | – | – | – |
| CC(C)(C)C1=NN(c2ccc(Cl)cc2)C(c2ccc3ccccc3c2)C1 (stereo not drawn) | Active | 12.7 | – | Active | – | – | – | – |
| CC(C)(C)C1=NN(c2ccc(Cl)cc2)C(c2ccc(Cl)cc2)C1 (stereo not drawn) | Active | 17.3 | 19.3 | Active | – | – | – | – |
| COc1ccc(C2=N[C@@H](c3ccc(Cl)cc3)[C@@H](c3ccc(Cl)cc3)N2C(=O)N2CCNC(=O)C2)c(OC(C)C)c1 [NUTLIN-3] | – | 1.6 | 14.7 | – | – | – | – | 9 |
| COc1ccc(C2=NN(c3ccccc3Cl)C(c3cccc(Cl)c3)C2)cc1 (stereo not drawn) | inactive | 1.5 | 7.2 | inactive | – | – | – | – |
| CC(C)(C)C1=NN(c2ccc(Cl)cc2)C(c2ccc(Cl)c(Cl)c2)C1 (stereo not drawn) | Active | 5.3 | 14.8 | Active | – | – | – | – |
